Test [1] deals with rat cortical cells. In words: Neurotoxicity (LDH release) in cortical cell culture. The test is classed as cell-based. The conditions noted are these: for NMDA-induced LDH release: 1 mM NOS inhibitor. The method, then: (§1) Tissue culture: Mixed neuronal and glial cultures were prepared from embryonic day-18 rat cerebral cortices (Sprague-Dawley, Zivic Miller). Briefly, the cerebral cortices were dissected and enzymatically dissociated by incubation in Ca^++-, Mg^++-free Hank's balanced salt solution (HBSS) supplemented with 10 mM HEPES and 0.25% trypsin for 20 min. at 37° C. The tissue was rinsed and dispersed into single cell suspension by gentle passage through a fire polished Pasteur pipette. The cell suspension was centrifuged and resuspended in Minimum Essential Media (MEM), containing Earle's salts supplemented with 3 g/L glucose, 5% horse serum and 5% fetal bovine serum (growth media). The cells were plated in poly-D-lysine-coated multi-well plates: 12-well plates for aconitase measurement, and 24 well plates for toxicity experiments. Cells were maintained at 37° C. in a humidified incubator with 5% CO2/95% air in growth media. Media was not replaced so as to reduce glial overgrowth and neuronal loss. Mature cells (14-17 days in vitro) were used for all experiments.
(§2) Cell treatment: The growth media was replaced with MEM supplemented with 25 mM glucose (MEM-g). For both neurotoxicity studies and aconitase measurement, cells were incubated in the designated treatment for the indicated length of time at 37° C. Unless otherwise specified, antagonists or SOD-mimetics were added 15 min. prior to agonists. For measurement of neurotoxicity, cells were incubated with treatments for 18 hr at 37° C. in MEM-g. To access the ability of antagonists to inhibit acute NMDA toxicity or rescue cells from an ongoing NMDA insult, an alternate paradigm of NMDA treatment was used in addition to the one describe above. In this paradigm, growth media was replaced with HBSS^+ (Ca^++-, Mg^++-free Hank's Balanced Salt Solution supplemented with 2 mM CaCl2, 1 mM NaHCO3, 10 mM HEPES and 5 μM glycine), cells were treated with vehicle or 100 μM NMDA for 15 min. after which HBSS^+ was replaced with MEM-g and cells were returned to the incubator for 18 additional hrs. Antagonsists or SOD-mimetics were added to the cells 15 min. before NMDA exposure or 15, 30 or 60 min. following final media replacement. For determination of Ca^++-dependence, cells were incubated in HBSS^+ with no added Ca^++. When kainate (KA) was used as an agonist, 100 μM D-APV was routinely included to block secondary NMDA receptor activation. Catalase (100 U/ml) was always included when xanthine plus xanthine oxidase (X+XO) was used as a treatment to rule out the contribution of hydrogen peroxide.
Neurotoxicity studies: Neurotoxicity was determined by the measurement of LDH released in the supernatant media as previously described (Patel et al, Toxicol. Appl. Pharmacol. 115:124 (1991) and Neurotoxicology 14:35 (1992)). LDH was measured by the method of Vassault, Lactate dehydrogenase. In: Methods of Enzymatic Analysis, Bergmeyer HU (ed), Verlag Chemie, Weinheim, pp. 118-126 (1983). Additionally, cell death was confirmed with ethidium-1 homodimer (EthD-1). Briefly, the cells were washed with HBSS, loaded with 20 μM EthD-1 for 30 min,. rinsed and viewed through fluorescence optics. The number of dead cells labeled with EthD-1 were counted in 4-6 randomly selected fields, the numbers averaged to give an estimate of cell death and the experiment was repeated 3 times.
For orientation: Release of lactate dehydrogenase indicates damage to the cell membrane.

A short description of test [2]: Cold-induced brain edema. It counts as in vivo, mice. As to conditions: for Edema Index: mean ± standard error; for less edema formation compared to saline treated controls: pretreatment i.p. The method, then:
Injury model: Young (6-7 week) mice (see Example I) were anesthetized with 60 mg/kg pentobarbital (Nembutal, Abbott Laboratories, Chicago, Ill.). An incision was then made in the scalp and a steel rod 20 cm long, 3 mm in diameter, equilibrated in liquid nitrogen with an 8 cm bath of liquid nitrogen 4 cm from the end of the rod, was placed on the skull over the right cerebral hemisphere for 30 seconds. The skin incision was then sutured.
Two hours after the injury the mouse was given an additional dose of pentobarbital. The chest cavity was opened, the lungs were excised, and the mouse was then perfused with 20 ml saline through the left ventricle of the heart. The brain was then removed and the cerebellum was excised. The right (R) and left (L) cerebral hemispheres were separated and immediately weighed (wet weight, W). Each hemisphere was then dried at 70° C. for 2-3 days in a hot air oven until a constant weight was achieved (dry weight, D). An index of edema (I) was then calculated as shown in equation 13.
I=(W/D R−W/DL)/(W/DL)×100 [13]
Chemical treatments: Six groups of experiments were conducted to investigate the importance of extracellular superoxide, iron, and nitric oxide in cold-induced brain edema. In all groups, drugs were dissolved in saline and injected at 0.008 cc/g 15 minutes prior to cold injury. In Group 1, edema formation of EC-SOD transgenic mice was compared with that of nontransgenic littermates. Group 2 compared edema formation between wild-type (C57BL/6×C3H)F1 mice treated with saline and (C57BL/6×C3H)F1 mice treated with 0.33 mg/g deferoxamine (0.51 μmoles/g). Group 3 compared (C57BL/6×C3H)F1 mice treated with saline to (C57BL/6×C3H)F1 mice treated with 0.51 μmoles/g Fe^3÷− saturated deferoxamine. Group 4 consisted of (C57BL/6×C3H)F1 mice treated with saline and (C57BL/6×C3H)F1 mice treated with 0.02 mg/g N-ω-nitro-L-arginine methyl ester. Group 5 consisted of (C57BL/6×C3H)F1 mice treated with saline and (C75BL/6×C3H)F1 mice treated with 0.02 mg/g N-ω-nitro-L-arginine methyl ester plus 0.05 mg/g L-arginine. Group 6 compared edema formation between nontransgenic mice, EC-SOD transgenic mice treated with saline, and EC-SOD transgenic mice treated with 0.02 mg/g N-ω-nitro-L-arginine methyl ester.
Iron saturated deferoxamine was made by dissolving equimolar amounts of deferoxamine and then ferric chloride in saline. Saturation of deferoxamine with ferric iron was determined spectrophotometrically be measuring the absorbance at 425 nm (ε=2500 M^−1 cm^−1 for Fe3+-deferoxamine) (Monzyk and Crumbliss, J. Amer. Chem. Soc. 104:4921 (1982)).

Test [3] has as its system aconitase. Put plainly: Aconitase activity in cortical cell lysates. It counts as cell-based, rat. As to conditions: for decrease in aconitase activity: PQ^++ 3 hrs, NMDA 1 hr, KA 6 hrs; for NMDA-induced aconitase inactivation: 1 mM NOS inhibitor. The method, then:
as §1, §2
Aconitase measurement: For the measurement of aconitase, following treatment with agents, media was removed and cells lysed in ice-cold 50 mM, Tris/HCl, pH 7.4 containing 0.6 mM MnCl2, 1 mM L-cysteine, 1 mM citrate and 0.5% Triton-X 100. The aconitase activity of cell lysates was measured spectrophotometrically by monitoring the formation of cis-aconitate from isocitrate at 240 nm in 50 mM Tris/HCl, pH 7.4, containing 0.6 mM MnCl2 and 20 mM isocitrate at 25° C. (Kreb and Holzach, Biochem. J. 52:527 (1952); Gardner and Fridovich, J. Biol. Chem. 267:8757 (1992)). […] Aconitase activity in cortical cell lysates was inhibited by 0.1 mM potassium ferricyanide or by boiling of sample.

Test [4] is described as follows: CNS oxygen toxicity, 6 ATA hyperbaric oxygen exposure. It counts as in vivo, mice. The conditions noted are these: for Survival: 6 ATA oxygen 25 minutes, DDC 400 mg/kg i.p. or LNNA 20 mg/kg i.p. As to the method: Oxygen exposures: 7-8 week old mice were exposed to hyperbaric oxygen five at a time in a small-animal chamber (Bethlehem, Pa.). After flushing the chamber with pure oxygen, compression to 50 meters (6 ATA) was performed within 5 minutes. The oxygen concentration in the chamber was monitored continuously with a Servomex oxygen analyzer (model 572, Sybron, Norwood, Mass.) and maintained at ≳99%. The carbon dioxide concentration was analyzed from intermittent samples of chamber gas with an IR detector (IR Industries, Santa Barbara, Calif.) and was not allowed to rise above 0.1%. The chamber temperature was maintained at 25-26° C., but the compression of oxygen in the chamber raised the temperature to 30-32° C. transiently, but an environmental control system restored the normal chamber temperature within 3 minutes. […] The mice were observed continuously for signs of oxygen toxicity from the beginning of the exposure until 4 hours after removal from the chamber. The time to the first generalized convulsion (seizure latency) and the time to death were recorded. These exposure conditions are designed to cause CNS oxygen toxicity without appreciable evidence of pulmonary oxygen toxicity.
Treatment with diethyldithiocarbamate: One hour prior to exposure to 6 ATA oxygen, mice were given either i.p. injections of either 0.008 cc/g saline or 400 mg/kg diethyldithiocarbamate dissolves in normal saline (0.008 cc/g). The mice were then exposed to 6 ATA oxygen for 25 minutes as described above.
Treatment with β-mercaptoethanol: One hour prior to exposure to 6 ATA oxygen, mice were given either i.p. injections of 0.008 cc/g saline or 180 mg/kg β-mercaptoethanol (0.008 cc/g). This dose of β-mercaptoethanol was selected because it contains an equal number of reducing thiols as the dose of diethyldithiocarbamate. The mice were then exposed to 6 ATA oxygen for 30 minutes as described above.
Treatment with N-ω-nitro-L-arginine, an inhibitor of nitric oxide synthase: Ten minutes prior to beginning compression, 0.008 cc/g saline or 20 mg/kg (0.008 cc/g) N-ω-nitro-L-arginine dissolved in sterile water was given i.p to the transgenic and nontransgenic mice. Mice were then exposed at 6 ATA oxygen for 25 or 75 minutes as described above.

For orientation: mortality means the percentage killed. A low value points to a weak lethal effect.

Regarding `N[C@H](CCCP(=O)(O)O)C(=O)O` [D-APV, reference compound], the “LDH release” value in test [1] (condition "pre", 100 μM D-APV, 100 μM NMDA 15 min.) is reported as “complete blockade”.
Regarding `CC(=O)N(O)CCCCCNC(=O)CCC(=O)N(O)CCCCCNC(=O)CCC(=O)N(O)CCCCCN` [Deferoxamine, deferoxamine], the “Edema Index” value in test [2] (wild-type mice, 0.51 μmoles/g, 15 minutes prior to cold injury) stood at 3.41 ± 0.49. Also, in test [2] (wild-type mice), the “less edema formation compared to saline treated controls” value worked out at 43%.
For the compound `C=C(C)[C@H]1CN[C@H](C(=O)O)[C@H]1CC(=O)O` [KA, kainate], in test [3], the “decrease in aconitase activity” value was determined as 42%.
With `N=C(N)NCCC[C@H](N)C(=O)O` [L-arginine], the “effect of excess L-arginine on protection by N-ω-nitro-L-arginine” value in test [4] (20 mg/kg LNNA plus 50 mg/kg L-arginine, 6 ATA oxygen) is listed as “could be reversed”.
`COC(=O)[C@@H](N)CCCNC(=N)N[N+](=O)[O-]` [LNAME, N-ω-nitro-L-arginine methyl ester]: the “NMDA-induced LDH release” value in test [1] is recorded as “unchanged”. Also, the NMDA-induced aconitase inactivation entry in test [3] is recorded as “unchanged”. For the same compound, the “Edema Index” value in test [2] (EC-SOD transgenic mice, 20 mg/kg 15 minutes prior to cold-induced injury) was 4.30 ± 0.96; in test [2] (wild-type mice, 0.02 mg/g LNAME, with or without 0.05 mg/g L-arginine) it was 3.65 ± 0.51. Moreover, the “less edema formation compared to saline treated controls” value in test [2] (wild-type mice) came to 37%.
`C[C@]12N[C@H](Cc3ccccc31)c1ccccc12` [MK801, reference compound]: the “reduction of LDH release / protective effect” value in test [1] (added 15 min. after 15 min. 100 μM NMDA, 200 μM MnTBAP, 10 μM MK801) was 17%.
As for `NC(=NCCC[C@H](N)C(=O)O)N[N+](=O)[O-]` [N-ω-nitro-L-arginine], the “NMDA-induced LDH release” value in test [1] is on record as “unchanged”. Further, the “difference in sensitivity between transgenic and nontransgenic mice” value in test [4] (20 mg/kg i.p., 6 ATA oxygen 75 minutes) is on record as “abolished the difference in sensitivity”. For the same compound, the Survival in test [4] (nontransgenic mice) and in test [4] (transgenic mice) was 100% each time. Further, the “seizure latency” value is “significantly delayed” in test [4] (transgenic and nontransgenic mice, 20 mg/kg i.p., 6 ATA oxygen); 13.50 ± 5.6 min in test [4] (wild-type mice, 20 mg/kg i.p., 6 ATA oxygen). The mortality is 50% in test [4] (wild-type mice, 20 mg/kg i.p., 90 minutes of 6 ATA oxygen) and 100% in test [4] (wild-type mice, 20 mg/kg i.p., 2 hours of 6 ATA oxygen). The NMDA-induced aconitase inactivation result in test [3] is given as “unchanged”.
Consider `CN[C@H](CC(=O)O)C(=O)O` [NMDA, N-methyl-D-aspartate], for which the “decrease in aconitase activity” value in test [3] was determined as 40%.
On to `C[n+]1ccc(-c2cc[n+](C)cc2)cc1` [PQ^++, methylviologen (paraquat)], for which the “decrease in aconitase activity” value in test [3] is reported as 70%.
In the case of `OCCS` [β-mercaptoethanol], in test [4] (180 mg/kg i.p., 6 ATA oxygen 30 minutes), the “protection against CNS oxygen toxicity” value is “did not protect against CNS oxygen toxicity”.

Source of the values: patent US6583132B1, “Oxidant scavengers” (Duke University, priority 1993, dated 2003).
